US5496947A, “Quinolone carboxylic acid derivatives” (Dong Wha Pharmaceutical Industrial Co., Ltd., priority 1994, dated 1996)
Converted amounts (≈) assume the structure as drawn. Read-outs that look alike come from different tables or passages of the source.

Legend:
[1] = tested on: Acinetobacter calcoaceticus; assay: MIC, 2-fold dilution method in micro-well plate, A. calcoaceticus; format: cell-based
Method: (§1) The in vitro antibiotic activity of the present compound is measured using 2-fold dilution method with a micro-well plate and the bacteria are inoculated in about 10^5 cfu/ml after an overnight culture in a brain-heart infusion (BHI) broth at 37° C. The novel compounds of the present invention are converted to a hydrochloride salt form and diluted with a sterilized distilled water to make 10 mg/ml aqueous solution. After the mother liquor wherein the compound is diluted to the two-fold concentration has been obtained in the form of an aqueous solution, the respective 0.1 ml of diluted liquor is transferred to a well and is inoculated with 0.1 ml of the culture fluid to make about (10^5 -10^6)/2 cfu/ml.
(§2) After cultivation at 37° C., the minimum inhibitory concentration (MIC) is measured and recorded in Table I-V.
Table I-V show the minimum inhibitory concentrations (MIC). […]

[2] = tested on: Citrobacter freundii ATCC 8090; assay: MIC, 2-fold dilution method in micro-well plate, C. freundii; format: cell-based
Method: as §1, §2
(§3) Table I-V show the minimum inhibitory concentrations (MIC).
Citrobacter freundii ATCC 8090

[3] = tested on: Enterobacter aerogenes ATCC 13048; assay: MIC, 2-fold dilution method in micro-well plate, E. aerogenes; format: cell-based; details: Klebsiella aerogenes
Method: as §1, §2, §3
Enterobacter aerogenes ATCC 13048

[4] = tested on: Enterobacter cloacae; assay: MIC, 2-fold dilution method in micro-well plate, E. cloacae; format: cell-based; details: read-out: Minimum Inhibitory Concentration
Method: as §1, §2, §3
Enterobacter cloacae ATCC 23355

[5] = tested on: Escherichia coli ATCC 25922; assay: MIC, 2-fold dilution method in micro-well plate, E. coli; format: cell-based; details: E. coli ATCC25922, 37° C., read-out: Minimum Inhibitory Concentration
Method: as §1, §2, §3
Escherichia coli ATCC 25922

[6] = tested on: Haemophilus influenza ATCC 35056; assay: MIC, 2-fold dilution method in micro-well plate, H. influenzae; format: cell-based; details: H. influenzae ATCC35056, 37° C.; read-out: Minimum Inhibitory Concentration
Method: as §1, §2, §3
Haemophilus influenza ATCC 35056

[7] = tested on: Klebsiella pneumoniae ATCC 13883; assay: MIC, 2-fold dilution method in micro-well plate, K. pneumoniae; format: cell-based
Method: as §1, §2, §3
Klebsiella pneumoniae ATCC 13883

[8] = tested on: Proteus vulgaris ATCC 13315; assay: MIC, 2-fold dilution method in micro-well plate, P. vulgaris; format: cell-based
Method: as §1, §2, §3
Proteus vulgaris ATCC 13315

[9] = tested on: Pseudomonas aeruginosa ATCC 27853; assay: MIC, 2-fold dilution method in micro-well plate, P. aeruginosa; format: cell-based
Method: as §1, §2, §3
Pseudomonas aeruginosa ATCC 27853

[10] = tested on: Salmonella typhimurium ATCC 14028; assay: MIC, 2-fold dilution method in micro-well plate, S. typhimurium; format: cell-based; details: Salmonella enterica, read-out: Minimum Inhibitory Concentration
Method: as §1, §2, §3
Salmonella typhimurium ATCC 14028

[11] = tested on: Shigella flexneri ATCC 12022; assay: MIC, 2-fold dilution method in micro-well plate, S. flexneri; format: cell-based; details: S. flexneri ATCC12022, 37° C., read-out: Minimum Inhibitory Concentration
Method: as §1, §2, §3
Shigella flexneri ATCC 12022

[12] = tested on: Shigella sonnei ATCC 25931; assay: MIC, 2-fold dilution method in micro-well plate, S. sonnei; format: cell-based; details: S. sonnei ATCC25931, 37° C., read-out: Minimum Inhibitory Concentration
Method: as §1, §2, §3
Shigella sonnei ATCC 25931

[13] = tested on: Serratia marcescens ATCC 8100; assay: MIC, 2-fold dilution method in micro-well plate, S. marcescens; format: cell-based
Method: as §1, §2, §3
Serratia marcescens ATCC 8100

[14] = tested on: Streptococcus faecalis ATCC 19433; assay: MIC, 2-fold dilution method in micro-well plate, S. faecalis ATCC 19433; format: cell-based; details: Enterococcus faecalis; S. faecalis ATCC19433, 37° C.; read-out: Minimum Inhibitory Concentration
Method: as §1, §2, §3
Streptococcus faecalis ATCC 19433

[15] = tested on: Streptococcus faecalis ATCC 29212; assay: MIC, 2-fold dilution method in micro-well plate, S. faecalis ATCC 29212; format: cell-based; details: Enterococcus faecalis; S. faecalis ATCC29212, 37° C.; read-out: Minimum Inhibitory Concentration
Method: as §1, §2, §3
Streptococcus faecalis ATCC 29212

[16] = tested on: Streptococcus pneumoniae ATCC 6303; assay: MIC, 2-fold dilution method in micro-well plate, S. pneumoniae; format: cell-based; details: S. pneuinoniae ATCC6303, 37° C., read-out: Minimum Inhibitory Concentration
Method: as §1, §2, §3
Streptococcus pneumoniae ATCC 6303

[17] = tested on: Streptococcus pyrogens ATCC 19615; assay: MIC, 2-fold dilution method in micro-well plate, S. pyrogens; format: cell-based; details: S. pyrogenes ATCC19615, 37° C., read-out: Minimum Inhibitory Concentration
Method: as §1, §2, §3
Streptococcus pyrogens ATCC 19615

[18] = Pharmacokinetic properties in ICR mouse, oral and subcutaneous, Bio-Assay (Agar well method); format: in vivo; details: 40 mg/kg, average of four tests; for dose excreted: urine, read-out: Urine Recovery
Method: The pharmacokinetic properties are tested by orally administrating and subcutaneously injecting a test compound and a substance for control to a ICR Mouse with 22 g±10% weight, drawing blood after 10, 20, 30, 45, 60, 90, 120, 150, 180 and […] and analyzed by Bio-Assay (Agar well method).

[19] = A. calcoaceticus ATCC8090 (as in tables), 37° C., read-out: Minimum Inhibitory Concentration
[20] = C. freundii ATCC8090, 37° C., read-out: Minimum Inhibitory Concentration
[21] = ATCC13048, read-out: Minimum Inhibitory Concentration
[22] = K. pneumoniae ATCC13883, 37° C., read-out: Minimum Inhibitory Concentration
[23] = P. vulgaris ATCC13315, 37° C., read-out: Minimum Inhibitory Concentration
[24] = P. aerugirnosa ATCC27853, 37° C., read-out: Minimum Inhibitory Concentration
[25] = ATCC8100, read-out: Minimum Inhibitory Concentration
[26] = ATCC8090, read-out: Minimum Inhibitory Concentration
[27] = E. aerogenes ATCC13048, 37° C., read-out: Minimum Inhibitory Concentration
[28] = E. cloacae ATCC23355 (as in tables), 37° C.
[29] = S. marcescens ATCC8100, 37° C., read-out: Minimum Inhibitory Concentration
[30] = S. typhisurium ATCC14028, 37° C.
[31] = ATCC13883, read-out: Minimum Inhibitory Concentration
[32] = ATCC13315, read-out: Minimum Inhibitory Concentration

| SMILES | MIC [1, 19] [µg/mL] | MIC [2, 20] [µg/mL] | MIC [3, 21] [µg/mL] | MIC [4] [µg/mL] | MIC [5] [µg/mL] | MIC [6] [µg/mL] | MIC [7, 22] [µg/mL] | MIC [8, 23] [µg/mL] | MIC [9, 24] [µg/mL] | MIC [10] [µg/mL] | MIC [11] [µg/mL] | MIC [12] [µg/mL] | MIC [14] [µg/mL] | MIC [15] [µg/mL] | MIC [16] [µg/mL] | MIC [17] [µg/mL] | MIC [1, 26] [µg/mL] | MIC [2, 26] [µg/mL] | MIC [3, 27] [µg/mL] | MIC [13, 29] [µg/mL] | also measured |
| --- | --- | --- | --- | --- | --- | --- | --- | --- | --- | --- | --- | --- | --- | --- | --- | --- | --- | --- | --- | --- | --- |
| CC1CN(c2cc3c(cc2F)c(=O)c(C(=O)O)cn3-c2ccc(F)cn2)CCN1.Cl (stereo not drawn) [Example 19, 1-(5-fluoro-2-pyridyl)-6-fluoro-7-(3-methyl-1-piperazinyl)-1,4-dihydro-4-oxoquinoline-3-carboxylic acid hydrochloride] | 1.25 | 1.25 | 0.625 | 0.625 | 0.078 | 0.625 | 1.25 | 0.156 | 0.625 | 0.313 | 0.313 | 0.313 | 5 | 5 | 5 | 10 |  |  |  |  | MIC [13, 25]: 0.625 µg/mL; AUC ([18]; blood, po, P.O): 16900 ng·h/mL; Cmax ([18]; blood, po, P.O): 3110 ng/mL; Tmax ([18]; blood, po, P.O): 0.87 h; bioavailability ([18]; blood, po, P.O): 72.7%; half-life ([18]; blood, po, P.O): 8.42 h; AUC ([18]; blood, sc, S.C): 23300 ng·h/mL; Cmax ([18]; blood, sc, S.C): 5110 ng/mL; Tmax ([18]; blood, sc, S.C): 0.87 h; half-life ([18]; blood, sc, S.C): 5.32 h; dose excreted ([18]; po, P.O): 29%; dose excreted ([18]; sc, S.C): 48.7% |
| Cc1c(F)c(N2CCNC(C)C2)cc2c1c(=O)c(C(=O)O)cn2-c1ccc(F)cn1.Cl (stereo not drawn) [Example 29, 5-methyl-7-(3-methyl-1-piperazinyl)-1-(5-fluoro-2-pyridyl)-6-fluoro-1,4-dihydro-4-oxoquinoline-3-carboxylic acid hydrochloride] |  |  |  |  | 1.25 | 0.625 | 1.25 | 1.25 | 1.25 | 0.625 | 0.625 | 0.625 | 5 | 5 | 10 | 10 | 0.625 | 0.625 | 0.313 | 1.25 | MIC [4, 28]: 0.313 µg/mL; AUC ([18]; blood, sc, S.C): 32600 ng·h/mL; Cmax ([18]; blood, sc, S.C): 8340 ng/mL; Tmax ([18]; blood, sc, S.C): 1.25 h; half-life ([18]; blood, sc, S.C): 2.31 h; dose excreted ([18]; po, P.O): 9.35%; dose excreted ([18]; sc, S.C): 12.8% |
| Cl.NC1CCN(c2c(F)cc3c(=O)c(C(=O)O)cn(-c4ccc(F)cn4)c3c2F)C1 (stereo not drawn) [Example 27, 1-(5-fluoro-2-pyridyl)-6,8-difluoro-7-(3-amino-1-pyrrolidinyl)-1,4-dihydro-4-oxoquinoline-3-carboxylic acid hydrochloride] | 0.313 | 0.156 |  |  | 0.078 | 0.078 | 0.156 | 0.156 | 0.313 |  | 0.078 | 0.005 | 1.25 | 2.5 | 2.5 | 2.5 |  |  | 0.156 | 0.313 | MIC [4, 28]: 0.313 µg/mL; MIC [10, 30]: 0.078 µg/mL |
| Cl.NC1CCN(c2cc3c(cc2F)c(=O)c(C(=O)O)cn3-c2ccc(F)cn2)C1 (stereo not drawn) [Example 21, 1-(5-fluoro-2-pyridyl)-6-fluoro-7-(3-amino-1-pyrrolidinyl)-1,4-dihydro-4-oxoquinoline-3-carboxylic acid hydrochloride] |  | 0.078 | 0.156 | 0.156 | 0.078 | 0.078 | 0.078 | 0.078 | 0.313 | 0.156 | 0.078 | 0.02 | 1.25 | 1.25 | 2.5 | 2.5 | 0.156 |  |  | 0.078 |  |
| CC1CN(c2c(F)cc3c(=O)c(C(=O)O)cn(-c4ccc(F)cn4)c3c2F)CC(C)N1.Cl (stereo not drawn) [Example 26, 1-(5-fluoro-2-pyridyl)-6,8-difluoro-7-(3,5-dimethyl-1-piperazinyl)-1,4-dihydro-4-oxoquinoline-3-carboxylic acid hydrochloride] |  |  |  | 1.25 | 0.625 | 1.25 | 0.625 | 0.255 | 0.625 |  | 0.313 | 0.313 | 5 | 5 | 5 | 10 | 1.25 | 1.25 | 0.625 |  | MIC [10, 30]: 0.625 µg/mL; MIC [13, 25]: 1.25 µg/mL |
| N[C@H]1CCN(c2cc3c(cc2F)c(=O)c(C(=O)O)cn3-c2ccncc2F)C1 [Example 6, 1-(3-fluoro-4-pyridyl)-6-fluoro-7-[(3S)-3-amino-1-pyrrolidinyl]-1,4-dihydro-4-oxoquinoline-3-carboxylic acid] | 0.156 (≈ 0.404 µM) |  | 0.313 (≈ 0.81 µM) |  | 0.078 (≈ 0.202 µM) | 0.313 (≈ 0.81 µM) | 0.156 (≈ 0.404 µM) | 0.078 (≈ 0.202 µM) | 0.156 (≈ 0.404 µM) |  | 0.313 (≈ 0.81 µM) | 0.02 (≈ 0.0518 µM) | 1.25 (≈ 3.24 µM) | 2.5 (≈ 6.47 µM) | 2.5 (≈ 6.47 µM) | 2.5 (≈ 6.47 µM) |  | 0.313 (≈ 0.81 µM) |  | 0.078 (≈ 0.202 µM) | MIC [4, 28]: 0.156 µg/mL (≈ 0.404 µM); MIC [10, 30]: 0.156 µg/mL (≈ 0.404 µM) |
| Cl.O=C(O)c1cn(-c2ccncc2F)c2cc(N3CCNCC3)c(F)cc2c1=O [Example 1, 1-(3-fluoro-4-pyridyl)-6-fluoro-7-(1-piperazinyl)-1,4-dihydro-4-oxoquinoline-3-carboxylic acid hydrochloride] |  | 1.25 |  | 0.625 | 1.25 | 0.625 |  |  | 0.625 | 0.625 | 0.625 | 0.625 | 5 | 5 | 2.5 | 5 | 0.625 |  | 1.25 | 0.313 | MIC [7, 31]: 0.625 µg/mL; MIC [8, 32]: 0.625 µg/mL |
| CC1CN(c2nc3c(cc2F)c(=O)c(C(=O)O)cn3-c2ccncc2F)CC(C)N1.Cl (stereo not drawn) [Example 10, 1-(3-fluoro-4-pyridyl)-6-fluoro-7-(3,5-dimethyl-1-piperazinyl)-1,4-dihydro-4-oxo-1,8-naphthyridine-3-carboxylic acid hydrochloride] | 10 | 1.25 |  | 0.625 | 1.25 | 0.625 |  |  |  | 0.625 | 0.625 | 0.625 | 2.5 | 5 | 5 | 10 |  |  | 1.25 | 2.5 | MIC [7, 31]: 0.625 µg/mL; MIC [8, 32]: 0.625 µg/mL; MIC ([9]; ATCC27853, read-out: Minimum Inhibitory Concentration): 0.25 µg/mL |
